Details: Liquid

CCCCO [butan-1-ol]
Details	mass density [kg/m3]
313.08 K, 1006 kPa	795.22
313.08 K, 2017 kPa	796.08
313.08 K, 3007 kPa	796.85
313.08 K, 4010 kPa	797.64
313.08 K, 5016 kPa	798.44
313.08 K, 6017 kPa	799.22
313.08 K, 7011 kPa	800
313.08 K, 8006 kPa	800.77
313.08 K, 9019 kPa	801.53
313.08 K, 10008 kPa	802.27
313.08 K, 11014 kPa	803.01
313.08 K, 12016 kPa	803.73
313.08 K, 13016 kPa	804.46
313.08 K, 14013 kPa	805.18
313.08 K, 15010 kPa	805.91
313.08 K, 16003 kPa	806.58
313.08 K, 16999 kPa	807.29
313.08 K, 17999 kPa	807.98
313.08 K, 19024 kPa	808.67
313.08 K, 20005 kPa	809.33
313.08 K, 21013 kPa	810.09
313.08 K, 22003 kPa	810.75
313.08 K, 23024 kPa	811.41
313.08 K, 24027 kPa	812.09
313.08 K, 24234 kPa	812.21
323.05 K, 999 kPa	787.38
323.05 K, 2026 kPa	788.22
323.05 K, 3007 kPa	789.03
323.05 K, 4024 kPa	789.91
323.05 K, 5012 kPa	790.75
323.05 K, 6016 kPa	791.57
323.05 K, 7023 kPa	792.4
323.05 K, 8004 kPa	793.16
323.05 K, 9009 kPa	793.98
323.05 K, 10007 kPa	794.78
323.05 K, 11004 kPa	795.57
323.05 K, 11995 kPa	796.32
323.05 K, 13007 kPa	797.09
323.05 K, 14022 kPa	797.85
323.05 K, 14989 kPa	798.63
323.05 K, 16006 kPa	799.33
323.05 K, 16998 kPa	800.1
323.05 K, 18001 kPa	800.84
323.05 K, 19025 kPa	801.56
323.05 K, 19993 kPa	802.28
323.05 K, 21032 kPa	803.06
323.05 K, 22006 kPa	803.74
323.05 K, 22993 kPa	804.41
323.05 K, 24012 kPa	805.16
323.05 K, 24418 kPa	805.43
332.93 K, 1013 kPa	779.33
332.93 K, 2026 kPa	780.27
332.93 K, 3014 kPa	781.21
332.93 K, 4006 kPa	782.04
332.93 K, 5000 kPa	782.91
332.93 K, 6013 kPa	783.78
332.93 K, 6997 kPa	784.6
332.93 K, 8003 kPa	785.5
332.93 K, 9005 kPa	786.32
332.93 K, 10001 kPa	787.17
332.93 K, 10996 kPa	787.97
332.93 K, 12003 kPa	788.8
332.93 K, 12993 kPa	789.62
332.93 K, 14001 kPa	790.38
332.93 K, 15016 kPa	791.22
332.93 K, 15998 kPa	791.96
332.93 K, 16999 kPa	792.72
332.93 K, 18009 kPa	793.53
332.93 K, 18986 kPa	794.29
332.93 K, 20043 kPa	795.08
332.93 K, 21056 kPa	795.87
332.93 K, 22040 kPa	796.59
332.93 K, 23009 kPa	797.3
332.93 K, 24001 kPa	798.04
332.93 K, 24515 kPa	798.46
342.86 K, 1026 kPa	770.92
342.86 K, 2007 kPa	771.87
342.86 K, 3003 kPa	772.85
342.86 K, 4051 kPa	773.84
342.86 K, 5008 kPa	774.72
342.86 K, 6023 kPa	775.59
342.86 K, 7010 kPa	776.55
342.86 K, 8000 kPa	777.42
342.86 K, 9001 kPa	778.28
342.86 K, 10005 kPa	779.2
342.86 K, 11006 kPa	780.06
342.86 K, 12010 kPa	780.9
342.86 K, 13033 kPa	781.77
342.86 K, 14017 kPa	782.62
342.86 K, 15001 kPa	783.45
342.86 K, 16009 kPa	784.29
342.86 K, 17016 kPa	785.14
342.86 K, 17991 kPa	785.93
342.86 K, 19023 kPa	786.79
342.86 K, 19999 kPa	787.57
342.86 K, 21000 kPa	788.37
342.86 K, 22003 kPa	789.15
342.86 K, 22989 kPa	789.91
342.86 K, 24004 kPa	790.69
342.86 K, 24621 kPa	791.2
352.79 K, 1020 kPa	762.66
352.79 K, 2014 kPa	763.68
352.79 K, 3007 kPa	764.68
352.79 K, 3998 kPa	765.67
352.79 K, 4998 kPa	766.69
352.79 K, 5997 kPa	767.68
352.79 K, 7006 kPa	768.64
352.79 K, 8005 kPa	769.61
352.79 K, 9007 kPa	770.53
352.79 K, 9997 kPa	771.44
352.79 K, 11008 kPa	772.38
352.79 K, 12000 kPa	773.26
352.79 K, 13043 kPa	774.22
352.79 K, 14002 kPa	775.11
352.79 K, 15000 kPa	775.98
352.79 K, 16000 kPa	776.85
352.79 K, 16992 kPa	777.72
352.79 K, 17988 kPa	778.56
352.79 K, 18994 kPa	779.41
352.79 K, 20012 kPa	780.22
352.79 K, 21003 kPa	781.04
352.79 K, 22010 kPa	781.87
352.79 K, 22971 kPa	782.68
352.79 K, 24021 kPa	783.49
352.79 K, 24573 kPa	783.95
362.67 K, 1043 kPa	753.5
362.67 K, 2116 kPa	754.77
362.67 K, 3026 kPa	755.74
362.67 K, 4013 kPa	756.82
362.67 K, 5024 kPa	757.87
362.67 K, 6047 kPa	758.93
362.67 K, 7014 kPa	759.93
362.67 K, 8012 kPa	760.98
362.67 K, 9025 kPa	762.03
362.67 K, 10015 kPa	762.94
362.67 K, 11002 kPa	763.92
362.67 K, 12002 kPa	764.89
362.67 K, 13011 kPa	765.86
362.67 K, 14011 kPa	766.84
362.67 K, 15014 kPa	767.7
362.67 K, 16006 kPa	768.67
362.67 K, 17009 kPa	769.58
362.67 K, 18008 kPa	770.48
362.67 K, 18993 kPa	771.37
362.67 K, 19990 kPa	772.21
362.67 K, 21007 kPa	773.1
362.67 K, 21997 kPa	773.96
362.67 K, 23014 kPa	774.89
362.67 K, 24000 kPa	775.58
362.67 K, 24563 kPa	776.12

— the NIST ThermoML archive (doi:10.1021/je700261b)
